Substitutions are numbered along the chain they refer to.
Tests used:
WT NS (neuroserpin) [1] = target: T1, WT NS (neuroserpin) (Homo sapiens, UniProt Q99574, H138C); assay: Bis-ANS fluorescence, excitation […] nm; format: binding; settings: 2 uM protein, Bis-ANS 1:5 ratio (10 uM), 25 °C, surface hydrophobicity probe
T1 construct: gene SERPINI1; N-terminal 6-His tag, pET28b, expressed in E. coli BL21(DE3), monomeric
T1 sequence (Q99574 17-410 H138C): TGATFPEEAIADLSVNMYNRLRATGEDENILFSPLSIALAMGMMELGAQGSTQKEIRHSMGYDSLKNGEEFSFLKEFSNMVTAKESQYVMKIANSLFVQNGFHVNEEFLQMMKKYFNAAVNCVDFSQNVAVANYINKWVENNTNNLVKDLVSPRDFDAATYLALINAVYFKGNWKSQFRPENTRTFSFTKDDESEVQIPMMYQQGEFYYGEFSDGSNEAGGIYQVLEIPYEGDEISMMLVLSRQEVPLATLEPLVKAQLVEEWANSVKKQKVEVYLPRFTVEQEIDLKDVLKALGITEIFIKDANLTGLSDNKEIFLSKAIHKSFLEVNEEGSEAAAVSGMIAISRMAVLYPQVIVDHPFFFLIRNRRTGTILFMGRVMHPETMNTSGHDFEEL

WT NS (neuroserpin) [2] = target: T2, WT NS (neuroserpin) (Homo sapiens, UniProt Q99574, H138C/W154C); assay: Bis-ANS fluorescence, excitation […] nm; format: binding; settings: 2 uM protein, Bis-ANS 1:5 ratio (10 uM), 25 °C, surface hydrophobicity probe
T2 construct: gene SERPINI1; N-terminal 6-His tag, pET28b, expressed in E. coli BL21(DE3), monomeric
T2 sequence (Q99574 17-410 H138C/W154C): T1 sequence (Q99574 17-410 H138C) with W138C

O=S(=O)(O)c1cccc2c(-c3ccc(Nc4ccccc4)c4c(S(=O)(=O)O)cccc34)ccc(Nc3ccccc3)c12 [Bis-ANS, 4,4-Bis-1-anilino naphthalene 8-sulfonate]
Bis-ANS fluorescence, excitation 390 nm (WT NS (neuroserpin) [1]): More hydrophobic exposure was observed due to increase Bis-ANS fluorescence in the H138C variant
Bis-ANS fluorescence, excitation 390 nm (WT NS (neuroserpin) [2]): The double variant showed a decreased fluoroscence emission intensity, and a very high surface hydrophobicity
